“And” between values parts separate entries of the source, which are not always exact repeats. Identical values can stand only once.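 All cell lines were grown in 96-well plates and treated with compound for 48 hours. Abbreviation: GI50, concentration required for 50% inhibition of growth. Definition used: TGI = concentration required for complete inhibition of growth.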
Key:
Test in all cases: DTP human tumour cell line panel, 48 h
KM12 colon = tested on: KM12 colon
U251 CNS = tested on: U251 CNS
SNB-75 CNS = tested on: SNB-75 CNS
SK-MEL-5 melanoma = tested on: SK-MEL-5 melanoma
EKVX NSCLC = tested on: EKVX NSCLC
K-562 leukemia = tested on: K-562 leukemia
UACC-62 melanoma = tested on: UACC-62 melanoma
IGROV1 ovarian = tested on: IGROV1 ovarian
SR leukemia = tested on: SR leukemia
NCI/ADR-RES ovarian = tested on: NCI/ADR-RES ovarian

Structure (SMILES)	TGI (KM12 colon)	TGI (U251 CNS)	TGI (SNB-75 CNS)	TGI (SK-MEL-5 melanoma)	TGI (EKVX NSCLC)	TGI (K-562 leukemia) [µM]	TGI (UACC-62 melanoma)	TGI (IGROV1 ovarian)	TGI (SR leukemia) [µM]	TGI (NCI/ADR-RES ovarian) [µM]	GI50 (KM12 colon) [µM]	GI50 (U251 CNS) [µM]	GI50 (SNB-75 CNS) [µM]	GI50 (SK-MEL-5 melanoma) [µM]	GI50 (EKVX NSCLC) [µM]	GI50 (K-562 leukemia) [µM]	GI50 (UACC-62 melanoma) [µM]	GI50 (IGROV1 ovarian) [µM]	GI50 (NCI/ADR-RES ovarian) [µM]	GI50 (SR leukemia) [µM]
O=S(=O)(O)CS(=O)(=O)OCCCl	> 100 µM	> 100 µM	> 100 µM	> 100 µM	> 100 µM	> 100	> 100 µM	> 100 µM	> 100											
Cn1ncc2cc3c(Nc4ccc(Cl)cc4)cccc3nc21	35.6 µM		> 100 µM	29.4 µM	88 µM	> 100	32.7 µM	38.8 µM												
COC(=O)Nc1nc2ccc(C(=O)c3ccc[nH]3)cc2[nH]1	> 100 µM	> 100 µM	1.69 µM		> 100 µM		> 100 µM	> 100 µM		9.01										
CCOC(=O)Cc1c(Cc2[nH]c(C(=O)OCc3ccccc3)c(CC(=O)OCC)c2CC(=O)OCC)[nH]c(C(=O)OCc2ccccc2)c1CC(=O)OCC		> 100 µM	> 100 µM	> 100 µM		> 100	> 100 µM	> 100 µM	> 100											
O/N=C1/C(=C/c2ccc(F)cc2)CCCC1C(NO)c1ccc(F)cc1 (centres undefined)	52.6 µM	> 100 µM	> 100 µM	39.2 µM	> 100 µM	> 100	> 100 µM	> 100 µM												
Cc1c(NC(=O)C(=O)N=NC(=O)c2ccncc2)c(O)c2ccccc2c1O	> 100 µM	28.1 µM	36.2 µM	5.8 µM	19.9 µM	> 82	6.07 µM	28.5 µM	> 36.4											
N[C@H]1C2C3CC4C5CC(C42)C1(c1ccccc1)C53 (some centres undefined)	> 100 µM	> 100 µM	> 100 µM	> 100 µM	> 100 µM	> 100	> 100 µM	> 100 µM	> 100											
O=[N+]([O-])c1ccc(-c2ccc(/C=N/n3c(-c4ccc(Cl)cc4)n[nH]c3=S)o2)cc1	61.4 µM	> 53.7 µM	> 83.1 µM	49.8 µM	> 100 µM	> 31.6	> 100 µM	> 100 µM	> 83.6											
CCOC(=O)C1C=C2O[C@@H]3OC4(CCCCC4)O[C@@H]3C2[C@H]2C(=O)C=CC(=O)[C@@]12C(=O)OC (some centres undefined)	27.8 µM	21.5 µM	35.4 µM	33.9 µM	36.1 µM	34.2	30.9 µM	27.6 µM	6.71											
O=C(Nc1ccncc1)C(=O)c1cn(S(=O)(=O)c2ccc(Br)cc2)c2ccccc12	> 100 µM	> 100 µM	41.7 µM	37.5 µM	> 100 µM	> 100	> 100 µM	> 100 µM		> 100	3.88	6.41	4	3.5	3.81	2.49	3.79	8.55	2.65	
O=C1C2=C(c3ccccc31)C(c1ccc(Cl)cc1)N1C(=O)CCSC1=N2 (centres undefined)	> 100 µM	> 100 µM	> 100 µM	> 100 µM	> 100 µM	> 100	> 100 µM	> 100 µM												
CCOC(=O)CCC(NC(=O)c1ccc(N=Cc2nc3cc(C(F)(F)F)ccc3nc2-c2ccccc2)cc1)C(=O)OCC (centres undefined)	50 µM and > 100 µM	19.4 µM and 57.1 µM	13 µM and 14.1 µM	50 µM and > 100 µM	50 µM and > 100 µM	> 100	40.7 µM and > 100 µM	50 µM and > 100 µM	> 100		> 100	9.75	3.64	> 100	> 100	> 100	61.6	> 100		> 100
CCOC(=O)/N=c1\ss/c(=N\C(=S)N(C)C)n1-c1ccccc1	> 100 µM	71.3 µM	28.3 µM	> 100 µM	> 100 µM	> 100	> 100 µM	> 100 µM			> 100		4.69	18.8				> 100		
O=C1C2=C(c3ccccc31)C(c1cccc(Cl)c1)NC(=S)N2 (centres undefined)	> 100 µM	> 100 µM	> 100 µM	> 100 µM	> 100 µM	> 100	> 100 µM	> 100 µM												
C/C(=N\NC(=S)Nc1ccc(C(=O)O)cc1)c1ccccn1	68.9 µM	58.3 µM	40 µM	32.8 µM	> 100 µM	> 100	21.9 µM	85.8 µM	56.3											
OB([O][Hg][c]1ccccc1)[O][Hg][c]1ccccc1	3.04 µM	1.89 µM	1.36 µM	1.85 µM		4.96	1.69 µM	0.401 µM		4.45	1.59	0.507	0.291	0.538		0.234	0.454	0.0949	1.69	
Cc1cc(Br)cc(C)c1NC(=O)C(=O)CC(=O)c1sc(-n2nc(-c3ccccc3)cc2-c2ccccc2)nc1C	> 100 µM	> 100 µM	> 100 µM		> 100 µM	> 100	> 100 µM	> 100 µM	> 100											
NNC(=O)/C(=C/c1cccc([N+](=O)[O-])c1)NC(=O)c1ccccc1	> 100 µM	> 100 µM	> 100 µM	> 100 µM	> 100 µM	> 100		> 100 µM	> 100											
COc1c(OC(C)=O)ccc(/C=C2\N=C(C)OC2=O)c1[N+](=O)[O-]	> 100 µM	> 100 µM	> 100 µM	> 100 µM		> 100	> 100 µM	> 100 µM	> 100											
CC(C)=CC(=O)CC(=O)C(=O)Nc1ccc(C)c(C)c1	> 100 µM	> 100 µM	> 100 µM		> 100 µM	> 100	> 100 µM	> 100 µM	> 100											
O=[N+]([O-])c1ccc(N/N=C\c2cc(Cl)ccc2O)nc1	> 100 µM	12.1 µM	21.3 µM	8.25 µM	> 100 µM	> 100	34.1 µM	4.69 µM		8.32	1.06	0.51	1.55	1.81	8.05	2.09	3.18	1.2	0.388	

Structure (SMILES)	TGI (KM12 colon)	TGI (U251 CNS)	TGI (SNB-75 CNS)	TGI (SK-MEL-5 melanoma)	TGI (EKVX NSCLC)	TGI (K-562 leukemia) [µM]	TGI (UACC-62 melanoma)	TGI (IGROV1 ovarian)	TGI (SR leukemia) [µM]	TGI (NCI/ADR-RES ovarian) [µM]	GI50 (KM12 colon) [µM]	GI50 (U251 CNS) [µM]	GI50 (SNB-75 CNS) [µM]	GI50 (SK-MEL-5 melanoma) [µM]	GI50 (EKVX NSCLC) [µM]	GI50 (K-562 leukemia) [µM]	GI50 (UACC-62 melanoma) [µM]	GI50 (IGROV1 ovarian) [µM]	GI50 (NCI/ADR-RES ovarian) [µM]	GI50 (SR leukemia) [µM]
Cc1cc(C)nc(NS(=O)(=O)c2ccc(Nc3c4ccccc4nc4c(C(=O)Nc5ccc(S(N)(=O)=O)cc5)cccc34)cc2)n1	> 100 µM	> 100 µM	88.4 µM	> 100 µM	98.2 µM	> 100	> 100 µM	> 100 µM												
COC1C=C(Nc2cccc(Cl)c2)C(=O)C1 (centres undefined)	> 100 µM	> 100 µM	> 100 µM	> 100 µM	55.3 µM	> 100	> 100 µM	> 100 µM	> 100											
NC(N)=NS(=O)(=O)c1ccc(NC(=O)c2cccc3c(Nc4ccc(S(=O)(=O)N=C(N)N)cc4)c4ccc(Cl)cc4nc23)cc1	> 100 µM	> 100 µM	> 100 µM	> 100 µM	> 100 µM	> 100	> 100 µM	> 100 µM												
CC(=O)O[C@H]1C(=O)[C@@]2(C)C([C@H](OC(=O)c3ccccc3)[C@]3(O)C[C@H](OC(=O)[C@H](O)[C@H](NC(=O)c4ccccc4)c4ccc(Cl)cc4)C(C)=C1C3(C)C)C1(OC(C)=O)CO[C@@H]1C[C@@H]2O (some centres undefined)				1.76 µM	40.6 µM	10.9	0.00418 µM								0.204					
COc1ccc(-c2oc3cc(O)c(OC)c(O)c3c(=O)c2OC2OC(CO)C(O)C(O)C2O)cc1 (centres undefined)	> 100 µM	> 100 µM	> 100 µM	> 100 µM	> 100 µM	> 100	> 100 µM	> 100 µM												
CC(=O)c1ccc(Nc2cc(-n3ccnc3)nc3ccccc23)cc1		> 100 µM	> 100 µM	53 µM	> 100 µM	81.5	92.8 µM	> 100 µM		> 100		32.6	38.2	15.6	> 100	11.4	19.2	> 100	> 100	
O=C1/C(=C\c2ccc(Cl)cc2)CN(C(=S)Nc2ccccc2)C/C1=C\c1ccc(Cl)cc1	0.645 µM	0.484 µM	3.82 µM	3.12 µM		7.67	2.92 µM	2.87 µM		18.4	0.261	0.212	1.25	1.66		0.356	1.2	0.953	2.54	
CCOC(=O)c1cnc(SCc2ccc(Cl)c(Cl)c2)nc1N1CC1	12.5 µM	18.2 µM	6.09 µM	12.6 µM	18.6 µM	14.8	19.5 µM			8.72	3.13	3.71	2.05	3.39	3.8	1.15	4.23	2.2	2.91	
Cc1ccc(-c2c(C#N)c(N)nc(N3CCOCC3)c2C#N)o1	> 100 µM		43.9 µM	> 100 µM	> 100 µM	> 100	> 100 µM	59.6 µM		> 100	46.6		2.73	40.5	21.2	73.8	39	21.6	33.6	
CC1=C(C(=O)Nc2ccc([N+](=O)[O-])cc2)C(c2ccco2)C(C(=O)Nc2ccc([N+](=O)[O-])cc2)=C(C)N1	33.9 µM	> 100 µM	> 100 µM	93.4 µM	73.6 µM	> 100		> 100 µM												
CC(=O)[CH-]C(=O)c1ccccc1.CC(=O)[CH-]C(=O)c1ccccc1.CCN(CC)CC[O-].CCN(CC)CC[O-].Cl.[Ti+4]	59.6 µM	> 100 µM	47.3 µM	> 100 µM		> 100	91.6 µM	> 100 µM			20	25.2	21.9	27.9		37.8	36	45.8		
CCCCN(CCCC)C(=O)C(=O)CC(=O)c1ccc(Br)cc1	> 100 µM	> 100 µM		> 100 µM	> 100 µM	> 100	> 100 µM	> 100 µM												
Cc1ccc2c(c1)NC(c1ccc(C(=O)O)cc1)c1cccn1-2 (centres undefined)	> 100 µM	> 100 µM	39.6 µM	> 100 µM	> 100 µM	> 100	> 100 µM		> 100											
CCOC(=O)c1cccc(=O)c(C(=O)OCC)c1	> 100 µM	> 100 µM	> 100 µM	> 100 µM	> 100 µM	> 100	> 100 µM	> 100 µM												
O=C(Cc1ccccc1)NN1C(=O)C(Cl)C1c1cccc(O)c1 (centres undefined)		24.4 µM	74.6 µM		45.7 µM	34.7		34.8 µM	15.4											
S=c1[nH]nc(COc2ccc(Cl)cc2)o1	> 100 µM	> 100 µM	> 100 µM	> 100 µM	> 100 µM	> 100	> 100 µM	> 100 µM												
C1=CN2C[n+]3cccc(OCc4ccccc4)c3N=C2C(OCc2ccccc2)=C1		> 100 µM	> 100 µM	21.2 µM	> 100 µM	42.4	26.6 µM	27.7 µM		> 100										
Cn1nc(-c2ccccc2NC(=O)C(F)(F)F)c(=O)n(C)c1=S	80.9 µM	> 100 µM	59.4 µM	> 100 µM	86.5 µM	66.8		> 100 µM	53.7											
CC1=C(C(=O)Nc2ccccc2)C(c2ccc3c(c2)OCO3)C(C(=O)Nc2ccccc2)=C(C)N1	> 100 µM			> 100 µM	> 100 µM	66	> 100 µM	> 100 µM												
N#Cc1ccccc1NC(=O)C(=O)C(C(=O)c1ccccc1-c1ccccc1)C1OC(=O)c2ccccc21 (centres undefined)	41.3 µM	25.6 µM	29.9 µM	> 100 µM	36 µM	> 100	33.8 µM	66.7 µM												

From PubChem BioAssay (NCI)
